According to patent US20140336503A1, “RA[…] […] RELATED METHODS THEREOF” (The Regents of the University of Michigan, priority 2013, published 2014):
pIC50: −log10 of the molar value.

Columns and labels:
osteoclasts in bone = assay: microPET imaging of radioligand uptake into bone in normal rats, with blocking studies; assay type: in vivo; conditions: rat
Text: Studies were done using imaging with Concorde Microsystems R4 and P4 PET scanners. Rats were anesthetized with isoflurane and maintained on 1% isoflurane throughout the imaging period. The animals were placed on their dorsal side in the scanner, and body temperature was maintained using a heating pad. A catheter was inserted into the tail vein for administration of radioactive solutions. Following a measured transmission scan, solutions of radioligands ([^11C]1 or ([^11C]2, 37-185 MBq in 0.5-1 mL volumes) were injected via the catheter, followed by a 1 ml flush of saline. For the blocking study, a 2 mg/kg dose of unlabeled compound 2 was administered 10 minutes prior to the injection of the radiolabeled [^11C]2. Emission data was collected for 60 minutes (12×5 min fames). The emission data was corrected for decay, dead time and random coincidences, then reconstructed using iterative ordered subset expectation maximization-maximum a posteriori (OSEM-MAP) yielding a reconstructed image resolution of approximately 1.4 mm. Volumetric regions of interest (ROIs) were defined using hand-drawn circular ROIs placed on the summed images, and the time-activity curves determined for each ROI (ASI Pro VM software: Siemens Medical Systems, Malvern, Pa.).

[1] = whole body biodistribution of radioactivity after intravenous injection in rats; assay type: in vivo, rat; conditions: female rats, i.v.; for Tissue biodistribution, Bone, avg: femur in its entirety
Description: The whole body biodistribution of radioactivity after intravenous injection of [^11C]1 was determined in rats. Animals (N =6, female CD rats) were lightly anesthetized (isoflurane) and injected via the tail vein with 1.85-4.44 MBq of radioligand formulated in 5% ethanol/saline. At selected times (5 and 40 min), groups (N=3) of animals were anesthetized, euthanized (decapitation) and samples of tissues removed. Tissue samples were weighed, counted for carbon-11, and the data calculated as % injected dose/g.

human cathepsin K = target: T1, human cathepsin K (Homo sapiens, UniProt P43235); conditions: in vitro; cited from earlier work
T1 sequence (P43235 115-329): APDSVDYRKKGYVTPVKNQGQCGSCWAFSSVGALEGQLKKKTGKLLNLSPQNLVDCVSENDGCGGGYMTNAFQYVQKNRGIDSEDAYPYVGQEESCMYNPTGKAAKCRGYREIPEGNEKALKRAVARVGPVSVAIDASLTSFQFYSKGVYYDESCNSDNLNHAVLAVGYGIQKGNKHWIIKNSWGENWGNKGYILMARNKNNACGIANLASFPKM

## [11CH3]Oc1ccc(CCNC(=O)c2cnc(C#N)nc2NC2CCCCC2)cc1 [[^11C]1, 2-cyano-4-(cyclohexylamino)-N-(4-[^11C]methoxyphenethyl)-pyrimidine-5-carboxamide]
Osteoclasts in bone; 10.8 GBq/μmol, co-injection of 14 micrograms/kg of unlabeled 1
  uptake and retention into target bone regions with low specific activity dose: nearly full block
Osteoclasts in bone; microPET
  uptake and retention after pretreatment with unlabeled CCX: reduced
  uptake in the growth plates (proximal humerus, distal ulnar, carpal, distal femur, proximal tibia, caudal vertebrae): high uptake
[1]; 5 min
  Tissue biodistribution, Adrenal, avg: 3.57 % injected dose/g
  Tissue biodistribution, Blood, avg: 0.24 % injected dose/g
  Tissue biodistribution, Brain, avg: 0.43 % injected dose/g
  Tissue biodistribution, Heart, avg: 1.23 % injected dose/g
  Tissue biodistribution, Kidney, avg: 2.03 % injected dose/g
  Tissue biodistribution, Liver, avg: 3.02 % injected dose/g
  Tissue biodistribution, Lung, avg: 0.68 % injected dose/g
  Tissue biodistribution, Muscle, avg: 0.11 % injected dose/g
  Tissue biodistribution, Pancreas, avg: 1.68 % injected dose/g
  Tissue biodistribution, Spleen, avg: 1.03 % injected dose/g
  Tissue biodistribution, Bone, avg: 0.26 % injected dose/g
[1]; 40 min
  Tissue biodistribution, Adrenal, avg: 0.51 % injected dose/g
  Tissue biodistribution, Blood, avg: 0.11 % injected dose/g
  Tissue biodistribution, Brain, avg: 0.11 % injected dose/g
  Tissue biodistribution, Heart, avg: 0.19 % injected dose/g
  Tissue biodistribution, Kidney, avg: 0.41 % injected dose/g
  Tissue biodistribution, Liver, avg: 0.68 % injected dose/g
  Tissue biodistribution, Lung, avg: 0.16 % injected dose/g
  Tissue biodistribution, Muscle, avg: 0.11 % injected dose/g
  Tissue biodistribution, Pancreas, avg: 0.56 % injected dose/g
  Tissue biodistribution, Spleen, avg: 0.22 % injected dose/g
  Tissue biodistribution, Bone, avg: 0.14 % injected dose/g

## COc1ccc(CCNC(=O)c2cnc(C#N)nc2NCC(C)(C)C)cc1 [[^11C]2, 2-cyano-N-(4-[^11C]methoxyphenethyl)-4-(neopentylamino)pyrimidine-5-carboxamide]
Human cathepsin K
  pIC50: 11.52

## CC(C)(C)CNc1nc(C#N)ncc1C(=O)NCCc1ccc(O[11CH3])cc1 [[^11C]2, 2-cyano-N-(4-[^11C]methoxyphenethyl)-4-(neopentylamino)pyrimidine-5-carboxamide]
Osteoclasts in bone; 2 mg/kg unlabeled 2, ten minutes prior to injection
  bone uptake of radioactivity after blocking dose of unlabeled ligand 2: reduction of bone uptake of radioactivity to essentially levels equivalent to background in non-target tissues

## COc1ccc(CCNC(=O)c2cnc(C#N)nc2NC2CCCCC2)cc1 [[^11C]1, 2-cyano-4-(cyclohexylamino)-N-(4-[^11C]methoxyphenethyl)-pyrimidine-5-carboxamide]
Human cathepsin K
  pIC50: 10.65
